According to patent publication US10494360B2, “Inhibitors of indoleamine 2,3-dioxygenase” (NETHERLANDS TRANSLATIONAL RESEARCH CENTER B.V., priority 2016, dated 2019):
pIC50: −log10 of the molar value. Values joined by “and” are separate entries in the source; they are usually repeats but may differ in a detail not shown here. Equal entries are not always repeated.

Legend:
[1] = biological target: tryptophan 2,3-dioxygenase (TDO) (Homo sapiens, UniProt P48775); conditions: Seegers et al. 2014; cited from earlier work
melanoma = conditions: Yue et al. 2009; cited from earlier work
IDO1 [2] = biological target: T1, IDO1 (Homo sapiens, UniProt P14902); parameters: Recombinant full-length IDO1 (Seegers, N., et al.) and all other assay components were diluted in IDO1 reaction buffer; made in house; conditions: read-out: KM,Trp of IDO1 for L-tryptophan; cited from earlier work
TDO = TDO (Homo sapiens, UniProt P48775); conditions: read-out: KM,Trp of TDO for L-tryptophan; cited from earlier work
IDO1 [3] = biological target: T1, IDO1; test: Biochemical IDO1 assay (NFK GreenScreen); parameters: Recombinant full-length IDO1 (Seegers, N., et al.) and all other assay components were diluted in IDO1 reaction buffer; made in house; conditions: for pIC50: recombinant full-length IDO1 25 nM, L-tryptophan 100 μM, NFK Green detection, read-out: IC50, inhibitory potency on IDO1
In short: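 Recombinant full-length IDO1 in 50 mM NaH2PO4 pH 7.0 with 0.05% Tween-20 and 1% glycerol converted 100 μM L-tryptophan (final) over 60 min at room temperature with compound, 0.3% DMSO.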

IDO1 [4] = biological target: T1, IDO1; test: Cell-based assay for IDO1 in interferon-γ stimulated A-375 melanoma cells; conditions: interferon-γ stimulation, 48 hours, read-out: IC50, cell-based IDO1 (NFK levels)
Experimental: The biological activity of IDO1 inhibitors can be measured by applying above detection methods to cells that are treated with test compound. The expression of IDO1 can be induced in many different cell lines by stimulation with IFNγ (Takikawa, O., et al., J. Biol. Chem. 263: 2041; 1988; Seegers, et al.), or IDO1 can be expressed in cells that lack endogenous IDO1 by transfection of an expression vector containing IDO1 cDNA.
A-375 melanoma cells were purchased from LGC Standards GmbH (Wesel, Germany) and cultured in DMEM tissue culture medium (Life Technologies, Bleiswijk, The Netherlands), supplemented with 10% (v/v) bovine calf serum. Compounds were dissolved in DMSO and diluted in DMEM. Final DMSO concentration in the assay was 0.4% (v/v). Eight thousand cells per well in 35 μl were seeded in a black 384-well tissue plate (cat. No. 781086; Greiner Bio-One GmbH, Frickenhausen, Germany) and allowed to adhere by incubation at 37° C., 95% humidity, and 5% CO2 overnight. Then, 5 μl of compound solution was added to the cells 1 hour prior to stimulation with 5 μl of 500 ng/ml interferon-γ (R&D Systems, Minneapolis, Minn., USA) diluted in DMEM medium. At the same time, 5 μl of L-tryptophan in 20 mM Hepes buffer pH 7.4 was added. Incubation was continued for 48 hours. To determine NFK levels, 12 μl NFK Green™ (NTRC, Oss, The Netherlands) was added to each well, and the plate was sealed and incubated for 4 hours at 37° C. Fluorescence was measured on an EnVision multimode reader (Perkin Elmer, Waltham, Mass., USA). IC50 were calculated using XLfit™ software (ID Business Solutions, Ltd., Surrey, U.K.).

influenza virus = conditions: influenza virus-infected mice; cited from earlier work
[5] = test system: melanoma and glioblastoma; conditions: mouse tumor models for melanoma and glioblastoma; cited from earlier work
lung carcinoma = conditions: syngeneic mouse lung carcinoma model and transgenic mouse model; cited from earlier work
Leishmania major = Leishmania major infection; cited from earlier work
[6] = test system: IDO1 expressed in mouse tumor cells; conditions: pre-immunized mice; Uyttenhove et al.; cited from earlier work

T1 sequence (P14902 whole entry, species assumed): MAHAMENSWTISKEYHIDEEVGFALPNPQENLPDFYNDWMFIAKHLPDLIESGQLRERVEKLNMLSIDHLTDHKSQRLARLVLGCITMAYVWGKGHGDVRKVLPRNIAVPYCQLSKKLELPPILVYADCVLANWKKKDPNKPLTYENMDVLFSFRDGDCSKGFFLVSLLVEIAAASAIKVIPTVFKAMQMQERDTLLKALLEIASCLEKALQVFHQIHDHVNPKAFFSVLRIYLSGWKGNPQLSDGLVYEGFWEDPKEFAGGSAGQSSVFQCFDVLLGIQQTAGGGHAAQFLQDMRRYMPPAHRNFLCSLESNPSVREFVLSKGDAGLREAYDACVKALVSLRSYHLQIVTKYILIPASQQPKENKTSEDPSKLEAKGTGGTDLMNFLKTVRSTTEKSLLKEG
Chain of tryptophan 2,3-dioxygenase (TDO) (P48775 whole entry, species assumed): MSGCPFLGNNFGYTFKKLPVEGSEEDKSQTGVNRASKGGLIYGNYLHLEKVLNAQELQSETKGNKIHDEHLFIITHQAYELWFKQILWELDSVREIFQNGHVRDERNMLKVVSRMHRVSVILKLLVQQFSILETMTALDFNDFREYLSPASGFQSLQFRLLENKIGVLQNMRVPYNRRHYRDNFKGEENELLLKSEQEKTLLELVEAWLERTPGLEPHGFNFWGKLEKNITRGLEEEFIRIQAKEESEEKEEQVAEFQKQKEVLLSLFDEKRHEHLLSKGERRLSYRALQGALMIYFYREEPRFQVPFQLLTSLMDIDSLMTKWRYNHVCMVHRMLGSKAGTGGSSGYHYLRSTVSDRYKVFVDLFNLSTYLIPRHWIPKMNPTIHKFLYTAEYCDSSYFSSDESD
Chain of TDO (P48775 whole entry, species assumed): as above

| SMILES | pIC50 (IDO1 [3]) | pIC50 (IDO1 [4]) | other results |
| --- | --- | --- | --- |
| Nc1nonc1C(=NO)Nc1ccc(F)c(Cl)c1 [compound 51, 4-amino-N-(3-chloro-4-fluorophenyl)-N′-hydroxy-1,2,5-oxadiazole-3-carboximidamide] | – | – | inhibition of TDO activity in biochemical assays [1]: inhibit the activity of tryptophan 2,3-dioxygenase (TDO); tumor growth in mouse model for melanoma (melanoma): reduction of tumor growth |
| N[C@@H](Cc1c[nH]c2ccccc12)C(=O)O [L-tryptophan] | – | – | Km (IDO1 [2]): 6 µM; Km (TDO): 190 µM |
| O=C1CN(Cc2c(F)cccc2F)C(c2cccc(Br)c2)N1O (centres unmarked) [Example 127, 2-(3-Bromophenyl)-1-[(2,6-difluorophenyl)methyl]-3-hydroxy-imidazolidin-4-one] | ≥ 6.00 | > 5.30 | – |
| O=C1CN(C(=O)c2c(F)cccc2F)C(c2cccc(Cl)c2)N1O (centres unmarked) [Example 15, 2-(3-Chlorophenyl)-1-(2,6-difluorobenzoyl)-3-hydroxy-imidazolidin-4-one] | ≥ 6.00 | > 5.30 | – |
| O=C1CN(C(=O)c2c(F)cc(C#CC3CCCCC3)cc2F)C(c2cccc(Br)c2)N1O (centres unmarked) [Example 108, 2-(3-Bromophenyl)-1-[4-(2-cyclohexylethynyl)-2,6-difluoro-benzoyl]-3-hydroxy-imidazolidin-4-one] | ≥ 6.00 | > 5.30 | – |
| O=C1CN(C(=O)c2c(F)cccc2Cl)C(c2ccc(F)c(Br)c2)N1O (centres unmarked) [Example 45, 2-(3-Bromo-4-fluoro-phenyl)-1-(2-chloro-6-fluoro-benzoyl)-3-hydroxy-imidazolidin-4-one] | ≥ 6.00 | > 5.30 | – |
| C#Cc1cccc(C2N(O)C(=O)CN2C(=O)c2c(F)cccc2F)c1 (centres unmarked) [Example 98, 1-(2,6-Difluorobenzoyl)-2-(3-ethynylphenyl)-3-hydroxy-imidazolidin-4-one] | ≥ 6.00 | > 5.30 | – |
| COCCNC(=O)c1c(Br)cc(F)c(C(=O)N2CC(=O)N(O)C2c2cccc(Br)c2)c1F (centres unmarked) [Example 138, 6-Bromo-3-[2-(3-bromophenyl)-3-hydroxy-4-oxo-imidazolidine-1-carbonyl]-2,4-difluoro-N-(2-methoxyethyl)benzamide] | ≥ 6.00 | > 5.30 | – |
| O=C1CN(C(=O)c2c(F)cccc2F)C(c2ccc(Cl)c(C(F)(F)F)c2)N1O (centres unmarked) [Example 9, 2-[4-Chloro-3-(trifluoromethyl)phenyl]-1-(2,6-difluorobenzoyl)-3-hydroxy-imidazolidin-4-one] | ≥ 6.00 | > 5.30 | – |
| Nc1ccc(F)c(C(=O)N2CC(=O)N(O)C2c2cccc(Br)c2)c1F (centres unmarked) [Example 76, 1-(3-Amino-2,6-difluoro-benzoyl)-2-(3-bromophenyl)-3-hydroxy-imidazolidin-4-one] | ≥ 6.00 | > 5.30 | – |
| CC(c1c(F)cccc1F)N1CC(=O)N(O)C1c1cccc(Br)c1 (single isomer, unassigned) [Example 141b, 2-(3-Bromophenyl)-1-[1-(2,6-difluorophenyl)ethyl]-3-hydroxy-imidazolidin-4-one] | ≥ 6.00 | > 5.30 | – |
| Cc1cc(F)c(C(=O)N2CC(=O)N(O)C2c2cccc(Br)c2)c(F)c1 (centres unmarked) [Example 116, 2-(3-Bromophenyl)-1-(2,6-difluoro-4-methyl-benzoyl)-3-hydroxy-imidazolidin-4-one] | ≥ 6.00 | > 5.30 | – |
| O=C1CN(C(=O)c2c(F)cc(-c3ccncc3)cc2F)C(c2cccc(Br)c2)N1O (centres unmarked) [Example 118, 2-(3-Bromophenyl)-1-[2,6-difluoro-4-(4-pyridyl)benzoyl]-3-hydroxy-imidazolidin-4-one] | ≥ 6.00 | > 5.30 | – |
| Cn1cc(-c2cc(F)c(C(=O)N3CC(=O)N(O)C3c3cccc(Br)c3)c(F)c2)cn1 (centres unmarked) [Example 119, 2-(3-Bromophenyl)-1-[2,6-difluoro-4-(1-methylpyrazol-4-yl)benzoyl]-3-hydroxy-imidazolidin-4-one] | ≥ 6.00 | > 5.30 | – |
| Cn1cc(C[C@H](N)C(=O)O)c2ccccc21 [Example 1-MT, 1-methyl-L-tryptophan] | – | – | T cell response against influenza virus (influenza virus): enhanced T cell response against the virus; efficacy of PD-1 and CTLA4 antibodies in combination [5]: increased the efficacy of antibodies targeting the immune checkpoints PD-1 and CTLA4; efficacy of a cancer vaccine in combination (lung carcinoma): increased the efficacy of a cancer vaccine; parasite burden (Leishmania major): reduced the parasite burden; reversal of IDO1-mediated prevention of tumor cell rejection [6]: this effect could be reverted |
| O=C1CN(C(=O)c2c(F)c(F)c(F)c(F)c2F)C(c2cccc(Br)c2)N1O (centres unmarked) [Example 62, 2-(3-Bromophenyl)-3-hydroxy-1-(2,3,4,5,6-pentafluorobenzoyl)imidazolidin-4-one] | ≥ 6.00 | > 5.30 | – |
| O=C1CN(C(=O)c2c(F)cccc2F)C(c2cccc(Br)c2)N1O (single isomer, unassigned) [Example 142a, 2-(3-bromophenyl)-1-(2,6-difluorobenzoyl)-3-hydroxy-imidazolidin-4-one] | ≥ 5.30 and 5.30 to 6.00 | > 5.30 | relative activity of separated isomers (IDO1 [3]; less active / most active isomer of the pair, assay not given): less active isomer |
